Test results reported in PMC11484510, “Antibacterial activity of structurally diverse natural prenylated isobavachalcone derivatives” (RSC Advances, 2024).
Structures can show the parent of a compound that is named as a salt. Where two headings read alike, the source gives them in different places.

Key:
S. aureus = assay: Combinational study (checkerboard microdilution) with standard drugs; type: cell-based
Procedure: The Fractional Inhibitory Concentration Index (FICI) was calculated for each test compound and reference drug to find the combinational effect.
In a 96-well flat bottom plate, the reference drug with 4× MIC was serially diluted horizontally. The test compounds with 4× MIC were serially diluted two-fold outside the plate in 1.5 mL Eppendorf's using Mueller Hinton Broth (MHB). These two serially diluted compounds were combined to create drug-compound combinations in the plate. The reference drug (horizontally) and tested compounds (vertically) alone were serially diluted for MIC determination. 100 μL of the standardized bacterial inoculum with a turbidity equivalent to a 0.5 McFarland standard were diluted 1 : 100 in Mueller Hinton Broth and inoculated in the plates. The plates were incubated for 24 hours at 37 °C. After incubation, 10 μL of freshly prepared Alamar blue (Himedia) was added to each well of the plate, and the plates were further incubated at 37 °C for 30 minutes. After incubation, the plates were visually observed. […] The FICI was calculated using the formula FICI = FIC of compound + FIC of drug. The calculation followed is FICI (CA/(MICA)) + (CB/(MICB)), where CA is the MIC of the compound in combination, CB is the MIC of the drug in combination, and MICA and MICB are the MIC values of individual compounds and drugs, respectively. The range selection followed the interpretation criteria. The FICI range of 0.5 to 4 indicates indifference, ≤ or =0.5 indicates synergy and >4 indicates antagonism.[57]

P. aeruginosa ATCC 27853 = assay: MIC, broth microdilution (CLSI), Alamar blue; type: cell-based; settings: P. aeruginosa ATCC 27853, 24 hours at 37 °C, read-out: Minimum inhibitory concentration (MIC) P. aeruginosa
Description: (§1) The bacterial strains S. aureus ATCC 29213, MRSA ATCC 15187, E. coli ATCC 25922, and P. aeruginosa ATCC 27853 were obtained from ATCC (American Type Culture Collection). Cation-adjusted Mueller–Hinton broth (MHB; Becton–Dickinson, Cockeysville, MD) was used to determine the minimum inhibitory concentration (MIC). Mueller–Hinton agar (MHA; Becton–Dickinson) was used for minimum bactericidal concentration (MBC) studies. Alamar blue (Himedia) was used to detect the MIC value.
(§2) The antibacterial activity of the compounds against S. aureus ATCC 29213, MRSA ATCC 15187, E. coli ATCC 25922, and P. aeruginosa ATCC 27853 was determined through a broth microdilution method according to the guidelines of the Clinical and Laboratory Standards Institute (CLSI).[50] […] Growth control and media control were employed along with 2% DMSO as vehicle control.
(§3) In a 96-well flat bottom plate, the test compounds were two-fold serially diluted in Mueller Hinton Broth (MHB). The final concentrations of the compounds ranged from 100 to 0.08 μM. 100 μL of standardized bacterial inoculum with turbidity equivalent to 0.5 McFarland standard (1.5 × 10^8 CFU mL^−1) was diluted 1 : 100 (1.5 × 10^6 CFU mL^−1) in Mueller Hinton Broth and inoculated in the plates.[51] The plates were incubated for 24 hours at 37 °C. After incubation, 10 μL of freshly prepared Alamar blue (Himedia) was added to each well of the plate, and plates were further incubated at 37 °C for 30 minutes. After incubation, the fluorescence was measured at excitation/emission of 540–570/580–610 nm. The percentage inhibition and viability were calculated for the controls, and the Gompertz curve was utilized to estimate the minimum inhibitory concentration.

S. aureus ATCC 29213 = assay: MIC, broth microdilution (CLSI), Alamar blue; type: cell-based; settings: S. aureus ATCC 29213, 24 hours at 37 °C, read-out: Minimum inhibitory concentration (MIC) S. aureus
Description: as §1, §2, §3

E. coli ATCC 25922 = assay: MIC, broth microdilution (CLSI), Alamar blue; type: cell-based; settings: E. coli ATCC 25922, 24 hours at 37 °C, read-out: Minimum inhibitory concentration (MIC) E. coli
Description: as §1, §2, §3

MRSA ATCC 15187 = assay: MIC, broth microdilution (CLSI), Alamar blue; type: cell-based, Methicillin-resistant S. aureus; settings: MRSA ATCC 15187, 24 hours at 37 °C, read-out: Minimum inhibitory concentration (MIC) MRSA
Description: as §1, §2, §3

[1] = Pseudomonas aeruginosa, ATCC27853, 24 h
[2] = Staphylococcus aureus, ATCC29213

Compound	MIC combination (drug) (S. aureus; MIC of ciprofloxacin in combination with IBC, S. aureus)	MIC combination (drug) (S. aureus; MIC of ciprofloxacin in combination with IBC-2, S. aureus)	MIC combination (drug) (S. aureus; MIC of ciprofloxacin in combination with IBC-3, S. aureus)	MIC (P. aeruginosa ATCC 27853)	MIC (P. aeruginosa ATCC 27853; [1])	MIC (S. aureus ATCC 29213)	MIC (S. aureus ATCC 29213; [2])	MIC (E. coli ATCC 25922)	MIC (E. coli ATCC 25922; Escherichia coli, ATCC25922)	MIC (MRSA ATCC 15187)	MIC (MRSA ATCC 15187; Staphylococcus aureus)
COc1ccc(/C=C/C(=O)c2ccc(OC)c(CC=C(C)C)c2OC)cc1 [IBC-4, (E)-1-(2,4-dimethoxy-3-(3-methylbut-2-en-1-yl)phenyl)-3-(4-methoxyphenyl)prop-2-en-1-one]	–	–	–	>100 µM	> 100 µM	>100 µM	> 100 µM	>100 µM	> 100 µM	>100 µM	> 100 µM
CC(C)=CCc1c(OCC(=O)N2CCCC2)ccc(C(=O)/C=C/c2ccc(OCC(=O)N3CCCC3)cc2)c1O [IBC-8, (E)-1-(2-hydroxy-3-(3-methylbut-2-en-1-yl)-4-(2-oxo-2-(pyrrolidin-1-yl)ethoxy)phenyl)-3-(4-(2-oxo-2-(pyrrolidin-1-yl)ethoxy)phenyl) prop-2-en-1-one]	–	–	–	>100 µM	> 100 µM	>100 µM	> 100 µM	>100 µM	> 100 µM	>100 µM	> 100 µM
CC(C)=CCc1c(O)ccc(C(=O)/C=C/c2ccc(OCC(=O)Nc3cc(C)[nH]n3)cc2)c1O [IBC-9, (E)-2-(4-(3-(2,4-dihydroxy-3-(3-methylbut-2-en-1-yl)phenyl)-3-oxoprop-1-en-1-yl)phenoxy)-N-(5-methyl-1H-pyrazol-3-yl)acetamide]	–	–	–	>100 µM	> 100 µM	>100 µM	> 100 µM	>100 µM	> 100 µM	>100 µM	> 100 µM
CC(C)=CCc1c(O)ccc(C(=O)/C=C/c2ccc(OCC(=O)N3CCSCC3)cc2)c1O [IBC-10, (E)-1-(2,4-dihydroxy-3-(3-methylbut-2-en-1-yl)phenyl)-3-(4-(2-oxo-2-thiomorpholinoethoxy)phenyl)-prop-2-en-1-one]	–	–	–	>100 µM	> 100 µM	>100 µM	> 100 µM	>100 µM	> 100 µM	>100 µM	> 100 µM
NC[C@H]1O[C@H](O[C@H]2[C@H](O)[C@@H](O[C@H]3O[C@H](CO)[C@@H](O)[C@H](N)[C@H]3O)[C@H](N)C[C@@H]2N)[C@H](O)[C@@H](O)[C@@H]1O [Kanamycin, kanamycin sulfate, reference compound]	–	–	–	–	2.8 µM	–	–	–	–	–	–

Other lines, results leading:

MIC combination (drug) (S. aureus; MIC of ciprofloxacin in combination with IBC, S. aureus)	MIC combination (drug) (S. aureus; MIC of ciprofloxacin in combination with IBC-2, S. aureus)	MIC combination (drug) (S. aureus; MIC of ciprofloxacin in combination with IBC-3, S. aureus)	MIC (P. aeruginosa ATCC 27853)	MIC (P. aeruginosa ATCC 27853; [1])	MIC (S. aureus ATCC 29213)	MIC (S. aureus ATCC 29213; [2])	MIC (E. coli ATCC 25922)	MIC (E. coli ATCC 25922; Escherichia coli, ATCC25922)	MIC (MRSA ATCC 15187)	MIC (MRSA ATCC 15187; Staphylococcus aureus)	Compound
0.156 µM	0.3125 µM	0.3125 µM	–	–	–	–	–	–	–	–	O=C(O)c1cn(C2CC2)c2cc(N3CCNCC3)c(F)cc2c1=O [Ciprofloxacin, ciprofloxacin hydrochloride monohydrate, reference compound]
–	–	–	>100 µM	> 100 µM	>100 µM	> 100 µM	>100 µM	> 100 µM	>100 µM	> 100 µM	CC(C)=CCc1c(OCC(=O)N2CCOCC2)ccc(C(=O)/C=C/c2ccc(OCC(=O)N3CCOCC3)cc2)c1OCC(=O)N1CCOCC1 [IBC-5, (E)-2,2′-((2-(3-methylbut-2-en-1-yl)-4-(3-(4-(2-morpholino-2-oxoethoxy)phenyl)acryloyl)-1,3-phenylene)bis(oxy)) bis (1-morpholinoethan-1-one)]
–	–	–	>100 µM	> 100 µM	>100 µM	> 100 µM	>100 µM	> 100 µM	>100 µM	> 100 µM	CC(C)=CCc1c(O)ccc(C(=O)/C=C/c2ccc(OCC(=O)Nc3ccc(Cl)cn3)cc2)c1O [IBC-6, (E)-N-(5-chloropyridin-2-yl)-2-(4-(3-(2,4-dihydroxy-3-(3-methylbut-2-en-1-yl)phenyl)-3-oxoprop-1-en-1-yl)phenoxy) acetamide]
–	–	–	>100 µM	> 100 µM	>100 µM	> 100 µM	>100 µM	> 100 µM	>100 µM	> 100 µM	CC(C)=CCc1c(O)ccc(C(=O)/C=C/c2ccc(OCC(=O)Nc3c(C)n(C)n(-c4ccccc4)c3=O)cc2)c1O [IBC-7, (E)-2-(4-(3-(2,4-dihydroxy-3-(3-methylbut-2-en-1-yl)phenyl)-3-oxoprop-1-en-1-yl)phenoxy)-N-(1,5-dimethyl-3-oxo-2-phenyl-2,3-dihydro-1H-pyrazol-4-yl) acetamide]
